# Results: patent US8962631B2 (Vertex Pharmaceuticals Incorporated, priority 2010, dated 2015)
# Biological target: T1, full-length ATR (Homo sapiens, UniProt Q13535)
# T1 construct: Assays were carried out at 25° C. in the presence of 5 nM full-length ATR
# Assay: ATR Inhibition Assay (radioactive-phosphate incorporation)
# Assay type: biochemical
# Conditions: Ki(app); 10 μM ATP, 800 μM target peptide, 5 nM full-length ATR, 25° C.
# Method: Compounds were screened for their ability to inhibit ATR kinase using a radioactive-phosphate incorporation assay. Assays were carried out in a mixture of 50 mM Tris/HCl (pH 7.5), 10 mM MgCl2 and 1 mM DTT. Final substrate concentrations were 10 μM [γ-33P]ATP (3 mCi 33P ATP/mmol ATP, Perkin Elmer) and 800 μM target peptide ([…] (SEQ. ID NO: 1)).
# Assays were carried out at 25° C. in the presence of 5 nM full-length ATR. An assay stock buffer solution was prepared containing all of the reagents listed above, with the exception of ATP and the test compound of interest. 13.5 μL of the stock solution was placed in a 96 well plate followed by addition of 2 μL of DMSO stock containing serial dilutions of the test compound (typically starting from a final concentration of 15 μM with 3-fold serial dilutions) in duplicate (final DMSO concentration 7%). The plate was pre-incubated for 10 minutes at 25° C. and the reaction initiated by addition of 15 μL [γ-33P]ATP (final concentration 10 μM).
# The reaction was stopped after 24 hours by the addition of 30 μL 0.1M phosphoric acid containing 2 mM ATP. A multiscreen phosphocellulose filter 96-well plate (Millipore, Cat no. MAPHN0B50) was pretreated with 100 μL 0.2M phosphoric acid prior to the addition of 45 μL of the stopped assay mixture. The plate was washed with […] 0.2M phosphoric acid. After drying, 100 μL Optiphase ‘SuperMix’ liquid scintillation cocktail (Perkin Elmer) was added to the well prior to scintillation counting (1450 Microbeta Liquid Scintillation Counter, Wallac).
# After removing mean background values for all of the data points, Ki(app) data were calculated from non-linear regression analysis of the initial rate data using the Prism software package (GraphPad Prism version 3.0cx for Macintosh, GraphPad Software, San Diego Calif., USA).
# T1 sequence (Q13535 whole entry): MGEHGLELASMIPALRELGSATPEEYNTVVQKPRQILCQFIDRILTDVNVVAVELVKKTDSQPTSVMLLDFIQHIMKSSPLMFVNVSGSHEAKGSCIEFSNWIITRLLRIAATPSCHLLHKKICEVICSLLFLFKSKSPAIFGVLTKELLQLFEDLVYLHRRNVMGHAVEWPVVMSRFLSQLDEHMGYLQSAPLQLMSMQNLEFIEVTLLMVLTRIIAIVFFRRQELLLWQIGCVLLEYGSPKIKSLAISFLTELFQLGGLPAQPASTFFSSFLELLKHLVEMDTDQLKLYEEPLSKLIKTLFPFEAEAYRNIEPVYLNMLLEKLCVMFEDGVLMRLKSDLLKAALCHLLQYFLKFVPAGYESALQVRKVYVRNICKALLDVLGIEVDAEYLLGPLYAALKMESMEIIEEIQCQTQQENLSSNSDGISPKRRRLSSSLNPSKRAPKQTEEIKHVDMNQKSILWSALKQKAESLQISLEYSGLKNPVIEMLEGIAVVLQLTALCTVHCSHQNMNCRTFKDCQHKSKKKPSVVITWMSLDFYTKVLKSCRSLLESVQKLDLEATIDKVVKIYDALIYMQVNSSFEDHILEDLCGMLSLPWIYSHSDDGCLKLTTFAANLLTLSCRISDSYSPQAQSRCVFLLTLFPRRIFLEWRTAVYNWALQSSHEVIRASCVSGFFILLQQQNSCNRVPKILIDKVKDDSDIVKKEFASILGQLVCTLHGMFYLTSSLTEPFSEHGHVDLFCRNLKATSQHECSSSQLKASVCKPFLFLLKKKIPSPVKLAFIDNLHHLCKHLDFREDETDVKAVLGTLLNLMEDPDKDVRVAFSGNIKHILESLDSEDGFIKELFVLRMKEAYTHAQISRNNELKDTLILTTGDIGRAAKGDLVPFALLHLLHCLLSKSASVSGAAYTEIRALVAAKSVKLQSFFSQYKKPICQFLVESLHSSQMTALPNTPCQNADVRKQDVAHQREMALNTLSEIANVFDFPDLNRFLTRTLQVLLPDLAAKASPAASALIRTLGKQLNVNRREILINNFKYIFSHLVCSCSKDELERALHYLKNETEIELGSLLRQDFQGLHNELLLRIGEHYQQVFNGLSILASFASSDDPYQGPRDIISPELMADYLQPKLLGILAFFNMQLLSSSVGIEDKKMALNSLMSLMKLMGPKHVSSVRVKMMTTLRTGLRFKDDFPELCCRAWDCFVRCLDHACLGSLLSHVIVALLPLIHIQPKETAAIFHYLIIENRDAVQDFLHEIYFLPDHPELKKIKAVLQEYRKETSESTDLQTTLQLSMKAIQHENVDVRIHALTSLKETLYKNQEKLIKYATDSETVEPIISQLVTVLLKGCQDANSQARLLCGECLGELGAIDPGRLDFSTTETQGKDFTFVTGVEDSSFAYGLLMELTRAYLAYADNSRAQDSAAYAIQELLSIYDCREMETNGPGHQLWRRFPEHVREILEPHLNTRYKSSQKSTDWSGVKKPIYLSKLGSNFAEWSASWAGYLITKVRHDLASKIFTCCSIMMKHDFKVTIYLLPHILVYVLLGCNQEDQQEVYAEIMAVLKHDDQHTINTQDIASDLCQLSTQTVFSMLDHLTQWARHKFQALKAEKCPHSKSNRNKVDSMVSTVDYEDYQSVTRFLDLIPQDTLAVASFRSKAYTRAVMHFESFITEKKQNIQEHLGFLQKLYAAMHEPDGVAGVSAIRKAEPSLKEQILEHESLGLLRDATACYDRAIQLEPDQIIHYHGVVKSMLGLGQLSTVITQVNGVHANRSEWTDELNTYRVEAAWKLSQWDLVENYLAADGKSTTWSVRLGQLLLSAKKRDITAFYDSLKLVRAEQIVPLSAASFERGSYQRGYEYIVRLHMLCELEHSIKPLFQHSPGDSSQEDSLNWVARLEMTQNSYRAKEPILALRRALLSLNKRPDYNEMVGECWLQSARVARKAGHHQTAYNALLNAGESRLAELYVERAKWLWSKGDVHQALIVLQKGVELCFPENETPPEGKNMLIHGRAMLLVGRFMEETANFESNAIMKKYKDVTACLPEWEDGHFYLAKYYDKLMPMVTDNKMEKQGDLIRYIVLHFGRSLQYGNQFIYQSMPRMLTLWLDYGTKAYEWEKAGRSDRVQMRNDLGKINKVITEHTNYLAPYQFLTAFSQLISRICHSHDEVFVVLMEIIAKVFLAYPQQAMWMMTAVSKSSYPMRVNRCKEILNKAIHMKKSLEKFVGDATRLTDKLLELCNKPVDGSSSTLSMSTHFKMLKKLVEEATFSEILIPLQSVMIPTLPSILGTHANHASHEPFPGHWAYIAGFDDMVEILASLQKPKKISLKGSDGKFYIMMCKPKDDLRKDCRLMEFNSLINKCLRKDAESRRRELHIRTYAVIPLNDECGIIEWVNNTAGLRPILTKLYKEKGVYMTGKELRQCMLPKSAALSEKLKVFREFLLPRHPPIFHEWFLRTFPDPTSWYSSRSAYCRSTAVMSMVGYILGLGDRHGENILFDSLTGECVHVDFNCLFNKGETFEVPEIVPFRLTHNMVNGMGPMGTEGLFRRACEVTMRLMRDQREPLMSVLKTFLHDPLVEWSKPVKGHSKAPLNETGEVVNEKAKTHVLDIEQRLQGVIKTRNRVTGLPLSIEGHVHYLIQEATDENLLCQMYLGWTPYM
row,Structure (SMILES),Ki
1,Cc1ccc2nc(-c3nc(/C=C/Cc4ccccc4)cnc3N)[nH]c2c1,1 to 8 µM
2,"Cc1ccc2nc(-c3nc(C(=O)NC(C)c4ccccc4)cnc3N)[nH]c2c1 (stereo in doubt) [II-57, 5-Amino-6-(6-methyl-1H-benzimidazol-2-yl)-N-[(1R)1-phenylethyl]pyrazine-2-carboxamide]",1 to 8 µM
3,"Nc1ncc(Nc2ccccc2)nc1C(=O)Nc1ccccc1 [II-1, 3-Amino-6-anilino-N-phenyl-pyrazine-2-carboxamide]",≤ 0.5 µM
4,"COc1ccccc1NC(=O)c1nc(Nc2ccccc2)cnc1N [II-3, 3-Amino-6-anilino-N-(2-methoxyphenyl)pyrazine-2-carboxamide]",≤ 0.5 µM
5,"Nc1ncc(Nc2cccc(F)c2)nc1C(=O)Nc1ccccc1 [II-4, 3-Amino-6-(3-fluoroanilino)-N-phenyl-pyrazine-2-carboxamide]",≤ 0.5 µM
6,"Nc1ncc(Nc2cccnc2)nc1C(=O)Nc1ccccc1 [II-5, 3-Amino-N-phenyl-6-(3-pyridylamino)pyrazine-2-carboxamide]",≤ 0.5 µM
7,"Nc1ncc(Nc2ccncc2)nc1C(=O)Nc1ccccc1 [II-6, 3-Amino-N-phenyl-6-(4-pyridylamino)pyrazine-2-carboxamide]",≤ 0.5 µM
8,"Nc1ncc(Oc2ccccc2)nc1-c1nc2ccccc2[nH]1 [II-7, 3-(1H-Benzimidazol-2-yl)-5-phenoxy-pyrazin-2-amine]",0.5 to 1 µM
9,"Nc1ncc(Oc2cccc(Cl)c2)nc1-c1nc2ccccc2[nH]1 [II-8, 3-(1H-Benzimidazol-2-yl)-5-(3-chlorophenoxy)pyrazin-2-amine]",0.5 to 1 µM
10,"CC(=O)Nc1cccc(Oc2cnc(N)c(-c3nc4ccccc4[nH]3)n2)c1 [II-9, N-[3-[5-Amino-6-(1H-benzimidazol-2-yl)pyrazin-2-yl]oxyphenyl]acetamide]",1 to 8 µM
11,"N#Cc1cccc(Oc2cnc(N)c(-c3nc4ccccc4[nH]3)n2)c1 [II-10, 3-[5-Amino-6-(1H-benzimidazol-2-yl)pyrazin-2-yl]oxybenzonitrile]",≤ 0.5 µM
12,"Nc1ncc(Oc2cccnc2)nc1-c1nc2ccccc2[nH]1 [II-12, 3-(1H-Benzimidazol-2-yl)-5-(3-pyridyloxy)pyrazin-2-amine]",1 to 8 µM
13,"CC(C)Oc1cnc(N)c(-c2nc3ccccc3[nH]2)n1 [II-13, 3-(1H-Benzimidazol-2-yl)-5-isopropoxy-pyrazin-2-amine]",1 to 8 µM
14,"Nc1ncc(OCCO)nc1-c1nc2ccccc2[nH]1 [II-14, 2-[5-Amino-6-(1H-benzimidazol-2-yl)pyrazin-2-yl]oxyethanol]",1 to 8 µM
15,"COc1cccc(Oc2cnc(N)c(-c3nc4ccccc4[nH]3)n2)c1 [II-15, 3-(1H-Benzimidazol-2-yl)-5-(3-methoxyphenoxy)pyrazin-2-amine]",0.5 to 1 µM
16,"COc1ccccc1NC(=O)c1nc(Oc2ccccc2)cnc1N [II-16, 3-Amino-N-(2-methoxyphenyl)-6-phenoxy-pyrazine-2-carboxamide]",≤ 0.5 µM
17,"Nc1ncc(Oc2ccccc2)nc1C(=O)Nc1ccccc1 [II-17, 3-Amino-6-phenoxy-N-phenyl-pyrazine-2-carboxamide]",0.5 to 1 µM
18,"CC(=O)Nc1ccc(Oc2cnc(N)c(-c3nc4ccc(C)cc4[nH]3)n2)cc1 [II-18, N-[4-[5-Amino-6-(6-methyl-1H-benzimidazol-2-yl)pyrazin-2-yl]oxyphenyl]acetamide]",1 to 8 µM

# Second part, the compound after the results:
row,Ki,Structure (SMILES)
1,1 to 8 µM,"Nc1ncc(O[C@@H]2CC[C@H](O)C2)nc1-c1nc2ccccc2[nH]1 (relative stereo) [II-35, cis-3-((5-Amino-6-(1H-benzo[d]imidazol-2-yl)pyrazin-2-yl)oxy)cyclopentanol]"
2,0.5 to 1 µM,"Nc1ncc(O[C@@H]2CC[C@@H](O)C2)nc1-c1nc2ccccc2[nH]1 (relative stereo) [II-36, trans-3-((5-Amino-6-(1H-benzo[d]imidazol-2-yl)pyrazin-2-yl)oxy)cyclopentanol]"
3,0.5 to 1 µM,"Cc1ccc2nc(-c3nc(Oc4ccccc4C#N)cnc3N)[nH]c2c1 [II-20, 2-[5-Amino-6-(6-methyl-1H-benzimidazol-2-yl)pyrazin-2-yl]oxybenzonitrile]"
4,1 to 8 µM,"Cc1ccc2nc(-c3nc(Oc4c(F)cccc4F)cnc3N)[nH]c2c1 [II-22, 5-(2,6-Difluorophenoxy)-3-(6-methyl-1H-benzimidazol-2-yl)pyrazin-2-amine]"
5,1 to 8 µM,"Cc1ccc2nc(-c3nc(Oc4ccc(F)cc4)cnc3N)[nH]c2c1 [II-23, 5-(4-Fluorophenoxy)-3-(6-methyl-1H-benzimidazol-2-yl)pyrazin-2-amine]"
6,1 to 8 µM,"Cc1ccc2nc(-c3nc(Oc4ccc(O)cc4)cnc3N)[nH]c2c1 [II-24, 4-[5-Amino-6-(6-methyl-1H-benzimidazol-2-yl)pyrazin-2-yl]oxyphenol]"
7,≤ 0.5 µM,"Cc1ccc2nc(-c3nc(Oc4ccc(C(=O)O)cc4)cnc3N)[nH]c2c1 [II-26, 4-[5-Amino-6-(6-methyl-1H-benzimidazol-2-yl)pyrazin-2-yl]oxybenzoic acid]"
8,0.5 to 1 µM,"Cc1ccc2nc(-c3nc(Oc4cccnc4)cnc3N)[nH]c2c1 [II-29, 3-(6-Methyl-1H-benzimidazol-2-yl)-5-(3-pyridyloxy)pyrazin-2-amine]"
9,1 to 8 µM,"Cc1ccc2nc(-c3nc(Oc4ccccc4)cnc3N)[nH]c2c1 [II-30, 3-(6-Methyl-1H-benzimidazol-2-yl)-5-phenoxy-pyrazin-2-amine]"
10,0.5 to 1 µM,"Cc1ccc2nc(-c3nc(OC4CCOC4)cnc3N)[nH]c2c1 (stereo not shown) [II-32, 3-(6-Methyl-1H-benzimidazol-2-yl)-5-tetrahydrofuran-3-yloxy-pyrazin-2-amine]"
11,1 to 8 µM,"Cc1ccc2nc(-c3nc(OC4CCCN(C)C4)cnc3N)[nH]c2c1 (stereo not shown) [II-33, 3-(6-Methyl-1H-benzimidazol-2-yl)-5-[(1-methyl-3-piperidyl)oxy]pyrazin-2-amine]"
12,1 to 8 µM,"CC(=O)NCCOc1cnc(N)c(-c2nc3ccc(C)cc3[nH]2)n1 [II-34, N-[2-[5-Amino-6-(6-methyl-1H-benzimidazol-2-yl)pyrazin-2-yl]oxyethyl]acetamide]"

# Same assay, conditions: at 15 uM compound; read-out: percent inhibition against ATR
row,Structure (SMILES),inhibition at 15 µM
1,"Cc1cccc(Oc2cnc(N)c(-c3nc4ccccc4[nH]3)n2)c1 [II-11, 3-(1H-Benzimidazol-2-yl)-5-(3-methylphenoxy)pyrazin-2-amine]",15 to 24%
2,"COC(=O)c1ccc(Oc2cnc(N)c(-c3nc4ccc(C)cc4[nH]3)n2)cc1 [II-25, Methyl 4-[5-amino-6-(6-methyl-1H-benzimidazol-2-yl)pyrazin-2-yl]oxybenzoate]",10%

# The next lines start with the values.
row,inhibition at 15 µM,Structure (SMILES)
1,25 to 45%,"COc1ccc(Oc2cnc(N)c(-c3nc4ccc(C)cc4[nH]3)n2)cc1 [II-19, 5-(4-Methoxyphenoxy)-3-(6-methyl-1H-benzimidazol-2-yl)pyrazin-2-amine]"
2,25 to 45%,"Cc1ccc2nc(-c3nc(OCCN4CCCCC4)cnc3N)[nH]c2c1 [II-27, 3-(6-Methyl-1H-benzimidazol-2-yl)-5-[2-(1-piperidyl)ethoxy]pyrazin-2-amine]"
3,15 to 24%,"Cc1ccc2nc(-c3nc(Oc4cccc(C#N)c4)cnc3N)[nH]c2c1 [II-31, 3-[5-Amino-6-(6-methyl-1H-benzimidazol-2-yl)pyrazin-2-yl]oxybenzonitrile]"

# Same assay, conditions: at 30 uM compound; read-out: percent inhibition against ATR
row,inhibition at 30 µM,Structure (SMILES)
1,40 to 50%,"Cc1ccc2nc(-c3nc(Oc4ccccc4Cl)cnc3N)[nH]c2c1 [II-21, 5-(2-Chlorophenoxy)-3-(6-methyl-1H-benzimidazol-2-yl)pyrazin-2-amine]"

# Same assay, conditions: at 60 uM compound; read-out: percent inhibition of ATR
row,inhibition at 60 µM,Structure (SMILES)
1,10%,"Cc1ccc2nc(-c3nc(Oc4cccc(Oc5ccccc5)c4)cnc3N)[nH]c2c1 [II-28, 3-(6-Methyl-1H-benzimidazol-2-yl)-5-(3-phenoxyphenoxy)pyrazin-2-amine]"
